Source: article PMC4979471 (Cell Death Discovery, 2015)
Where two headings read alike, the source gives them in different places.

Tests used:
Test in all cases: Kinase selectivity, P33-radiolabeled assay
Assay type in all cases: biochemical
Conditions in all cases: 10 μM ATP
[1] = biological target: T1, BTK (Homo sapiens, UniProt Q06187)
T1 construct: purchased Reaction Biology Corp
Summary of the method: (§1)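 Reactions contained 10 μM ATP and 10 μM test compound, each run in duplicate. Kinase activity is expressed as a percentage of DMSO-treated controls.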

[2] = biological target: T2, CAMK1g (Homo sapiens, UniProt Q96NX5)
T2 construct: purchased Reaction Biology Corp
Summary of the method: as §1

[3] = biological target: T3, CDC7/DBF4 (Homo sapiens, UniProt O00311)
T3 construct: purchased Reaction Biology Corp
Summary of the method: as §1

[4] = biological target: T4, HIPK1 (Homo sapiens, UniProt Q86Z02)
T4 construct: purchased Reaction Biology Corp
Summary of the method: as §1

[5] = biological target: T5, MRCKa/CDC42BPA (Homo sapiens, UniProt Q5VT25)
T5 construct: purchased Reaction Biology Corp
Summary of the method: as §1

[6] = biological target: T6, MST1/STK4 (Homo sapiens, UniProt Q13043)
T6 construct: purchased Reaction Biology Corp
T6 sequence (Q13043 1-487): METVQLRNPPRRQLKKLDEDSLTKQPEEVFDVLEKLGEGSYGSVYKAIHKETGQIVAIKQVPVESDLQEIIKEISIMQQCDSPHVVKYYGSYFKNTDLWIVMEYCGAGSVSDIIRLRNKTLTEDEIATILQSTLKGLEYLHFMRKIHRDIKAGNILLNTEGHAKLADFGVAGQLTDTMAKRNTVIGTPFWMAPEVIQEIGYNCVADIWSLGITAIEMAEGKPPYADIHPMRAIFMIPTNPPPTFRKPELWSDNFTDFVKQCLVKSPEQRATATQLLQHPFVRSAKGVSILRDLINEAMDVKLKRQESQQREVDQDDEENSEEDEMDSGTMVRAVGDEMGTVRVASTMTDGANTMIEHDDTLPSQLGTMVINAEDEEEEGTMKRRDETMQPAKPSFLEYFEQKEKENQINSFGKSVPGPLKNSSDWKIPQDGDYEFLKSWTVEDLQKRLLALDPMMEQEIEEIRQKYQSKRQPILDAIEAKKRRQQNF
Summary of the method: as §1

[7] = biological target: T7, MYLK3 (Homo sapiens, UniProt Q32MK0)
T7 construct: purchased Reaction Biology Corp
T7 sequence (Q32MK0 1-819): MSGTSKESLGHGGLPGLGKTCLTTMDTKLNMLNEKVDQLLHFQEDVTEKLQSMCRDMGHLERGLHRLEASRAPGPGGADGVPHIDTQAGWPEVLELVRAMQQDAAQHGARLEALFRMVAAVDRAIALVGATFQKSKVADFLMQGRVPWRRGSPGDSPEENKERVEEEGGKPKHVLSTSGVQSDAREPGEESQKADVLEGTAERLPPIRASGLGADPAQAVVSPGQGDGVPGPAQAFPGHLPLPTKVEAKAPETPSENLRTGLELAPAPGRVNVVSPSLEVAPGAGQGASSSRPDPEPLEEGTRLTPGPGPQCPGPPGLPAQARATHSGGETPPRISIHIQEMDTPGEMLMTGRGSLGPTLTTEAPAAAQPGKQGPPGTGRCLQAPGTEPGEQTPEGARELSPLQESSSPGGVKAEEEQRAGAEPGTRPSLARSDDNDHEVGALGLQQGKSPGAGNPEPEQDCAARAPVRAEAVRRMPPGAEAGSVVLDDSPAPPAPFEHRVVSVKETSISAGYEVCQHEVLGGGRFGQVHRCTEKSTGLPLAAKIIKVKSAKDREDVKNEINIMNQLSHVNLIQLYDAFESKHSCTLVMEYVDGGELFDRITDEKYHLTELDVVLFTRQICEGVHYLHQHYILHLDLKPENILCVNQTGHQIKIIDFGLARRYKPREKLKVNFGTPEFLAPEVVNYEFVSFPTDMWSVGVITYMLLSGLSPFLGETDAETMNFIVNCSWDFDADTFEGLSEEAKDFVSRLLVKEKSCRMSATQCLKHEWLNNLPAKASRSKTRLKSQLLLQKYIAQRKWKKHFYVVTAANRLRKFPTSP
Summary of the method: as §1

[8] = biological target: T8, PKCnu/PRKD3 (Homo sapiens, UniProt O94806)
T8 construct: purchased Reaction Biology Corp
T8 sequence (O94806 1-890): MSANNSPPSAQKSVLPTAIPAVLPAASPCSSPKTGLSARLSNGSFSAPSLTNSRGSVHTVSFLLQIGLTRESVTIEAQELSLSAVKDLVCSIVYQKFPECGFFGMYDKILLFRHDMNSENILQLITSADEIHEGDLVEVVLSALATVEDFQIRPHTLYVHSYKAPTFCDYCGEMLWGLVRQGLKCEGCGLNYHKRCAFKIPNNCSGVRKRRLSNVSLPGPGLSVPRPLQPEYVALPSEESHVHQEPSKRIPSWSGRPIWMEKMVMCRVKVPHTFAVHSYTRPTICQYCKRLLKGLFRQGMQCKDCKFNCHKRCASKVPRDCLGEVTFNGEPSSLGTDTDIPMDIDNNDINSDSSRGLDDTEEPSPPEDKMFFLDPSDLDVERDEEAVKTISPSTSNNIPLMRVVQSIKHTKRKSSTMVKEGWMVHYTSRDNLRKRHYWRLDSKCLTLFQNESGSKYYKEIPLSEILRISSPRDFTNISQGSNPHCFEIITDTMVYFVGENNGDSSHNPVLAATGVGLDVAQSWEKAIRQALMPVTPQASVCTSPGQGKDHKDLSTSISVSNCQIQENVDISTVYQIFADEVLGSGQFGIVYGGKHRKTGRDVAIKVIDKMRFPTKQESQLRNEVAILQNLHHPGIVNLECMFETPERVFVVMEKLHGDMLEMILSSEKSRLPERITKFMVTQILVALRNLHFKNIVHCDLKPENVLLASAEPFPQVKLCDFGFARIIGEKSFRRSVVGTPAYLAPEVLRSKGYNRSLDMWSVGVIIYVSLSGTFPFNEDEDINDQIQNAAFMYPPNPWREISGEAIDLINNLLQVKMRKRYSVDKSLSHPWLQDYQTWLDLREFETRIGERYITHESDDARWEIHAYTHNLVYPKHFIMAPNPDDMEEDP
Summary of the method: as §1

[9] = read-out: % Enzyme Activity (relative to DMSO controls) AVG
[10] = read-out: % Enzyme Activity (relative to DMSO controls) Data 1
[11] = read-out: % Enzyme Activity (relative to DMSO controls) Data 2

T5 sequence (Q5VT25 whole entry): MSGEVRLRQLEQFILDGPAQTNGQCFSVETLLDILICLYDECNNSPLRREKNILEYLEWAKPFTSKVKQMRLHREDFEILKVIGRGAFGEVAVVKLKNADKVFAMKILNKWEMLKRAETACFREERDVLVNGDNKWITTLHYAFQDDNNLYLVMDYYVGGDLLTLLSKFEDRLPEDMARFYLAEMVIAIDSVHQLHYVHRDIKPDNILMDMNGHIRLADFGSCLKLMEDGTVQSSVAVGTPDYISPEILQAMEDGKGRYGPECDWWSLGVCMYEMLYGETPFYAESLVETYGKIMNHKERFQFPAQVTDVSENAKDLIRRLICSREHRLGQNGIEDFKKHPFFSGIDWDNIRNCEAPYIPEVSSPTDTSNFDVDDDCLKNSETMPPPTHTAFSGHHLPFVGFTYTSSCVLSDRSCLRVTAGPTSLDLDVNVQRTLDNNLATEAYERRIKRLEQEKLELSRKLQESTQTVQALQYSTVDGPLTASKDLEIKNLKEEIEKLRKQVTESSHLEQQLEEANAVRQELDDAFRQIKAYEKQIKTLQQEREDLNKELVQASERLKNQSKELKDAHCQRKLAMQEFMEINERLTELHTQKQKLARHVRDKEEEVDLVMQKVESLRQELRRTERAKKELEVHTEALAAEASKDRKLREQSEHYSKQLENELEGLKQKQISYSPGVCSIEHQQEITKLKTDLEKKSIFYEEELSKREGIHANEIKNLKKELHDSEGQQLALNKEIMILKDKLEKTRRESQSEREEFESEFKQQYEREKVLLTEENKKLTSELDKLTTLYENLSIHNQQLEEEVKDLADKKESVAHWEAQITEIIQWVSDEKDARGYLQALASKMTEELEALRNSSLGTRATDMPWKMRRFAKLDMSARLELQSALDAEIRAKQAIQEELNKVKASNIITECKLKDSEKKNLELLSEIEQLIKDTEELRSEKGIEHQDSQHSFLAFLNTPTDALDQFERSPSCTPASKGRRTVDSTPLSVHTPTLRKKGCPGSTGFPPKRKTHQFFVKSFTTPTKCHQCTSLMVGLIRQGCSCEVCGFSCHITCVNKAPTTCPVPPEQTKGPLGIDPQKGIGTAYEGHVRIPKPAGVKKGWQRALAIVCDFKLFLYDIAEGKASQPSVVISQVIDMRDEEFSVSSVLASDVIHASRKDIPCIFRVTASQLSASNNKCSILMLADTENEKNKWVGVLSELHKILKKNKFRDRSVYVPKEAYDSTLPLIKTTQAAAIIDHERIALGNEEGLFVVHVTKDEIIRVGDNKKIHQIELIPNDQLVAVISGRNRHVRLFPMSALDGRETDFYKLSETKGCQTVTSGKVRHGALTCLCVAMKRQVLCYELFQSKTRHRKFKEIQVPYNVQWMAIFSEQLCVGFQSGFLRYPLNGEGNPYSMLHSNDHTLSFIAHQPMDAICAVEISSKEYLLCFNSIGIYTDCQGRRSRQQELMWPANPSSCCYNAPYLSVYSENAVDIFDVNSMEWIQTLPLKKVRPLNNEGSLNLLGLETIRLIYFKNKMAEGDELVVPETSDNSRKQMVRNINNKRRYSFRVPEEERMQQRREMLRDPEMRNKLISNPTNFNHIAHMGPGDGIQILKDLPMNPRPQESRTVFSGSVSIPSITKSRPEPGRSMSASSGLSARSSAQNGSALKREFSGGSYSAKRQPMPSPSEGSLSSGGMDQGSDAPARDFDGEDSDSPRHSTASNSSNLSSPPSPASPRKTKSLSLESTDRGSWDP
T4 sequence (Q86Z02 whole entry): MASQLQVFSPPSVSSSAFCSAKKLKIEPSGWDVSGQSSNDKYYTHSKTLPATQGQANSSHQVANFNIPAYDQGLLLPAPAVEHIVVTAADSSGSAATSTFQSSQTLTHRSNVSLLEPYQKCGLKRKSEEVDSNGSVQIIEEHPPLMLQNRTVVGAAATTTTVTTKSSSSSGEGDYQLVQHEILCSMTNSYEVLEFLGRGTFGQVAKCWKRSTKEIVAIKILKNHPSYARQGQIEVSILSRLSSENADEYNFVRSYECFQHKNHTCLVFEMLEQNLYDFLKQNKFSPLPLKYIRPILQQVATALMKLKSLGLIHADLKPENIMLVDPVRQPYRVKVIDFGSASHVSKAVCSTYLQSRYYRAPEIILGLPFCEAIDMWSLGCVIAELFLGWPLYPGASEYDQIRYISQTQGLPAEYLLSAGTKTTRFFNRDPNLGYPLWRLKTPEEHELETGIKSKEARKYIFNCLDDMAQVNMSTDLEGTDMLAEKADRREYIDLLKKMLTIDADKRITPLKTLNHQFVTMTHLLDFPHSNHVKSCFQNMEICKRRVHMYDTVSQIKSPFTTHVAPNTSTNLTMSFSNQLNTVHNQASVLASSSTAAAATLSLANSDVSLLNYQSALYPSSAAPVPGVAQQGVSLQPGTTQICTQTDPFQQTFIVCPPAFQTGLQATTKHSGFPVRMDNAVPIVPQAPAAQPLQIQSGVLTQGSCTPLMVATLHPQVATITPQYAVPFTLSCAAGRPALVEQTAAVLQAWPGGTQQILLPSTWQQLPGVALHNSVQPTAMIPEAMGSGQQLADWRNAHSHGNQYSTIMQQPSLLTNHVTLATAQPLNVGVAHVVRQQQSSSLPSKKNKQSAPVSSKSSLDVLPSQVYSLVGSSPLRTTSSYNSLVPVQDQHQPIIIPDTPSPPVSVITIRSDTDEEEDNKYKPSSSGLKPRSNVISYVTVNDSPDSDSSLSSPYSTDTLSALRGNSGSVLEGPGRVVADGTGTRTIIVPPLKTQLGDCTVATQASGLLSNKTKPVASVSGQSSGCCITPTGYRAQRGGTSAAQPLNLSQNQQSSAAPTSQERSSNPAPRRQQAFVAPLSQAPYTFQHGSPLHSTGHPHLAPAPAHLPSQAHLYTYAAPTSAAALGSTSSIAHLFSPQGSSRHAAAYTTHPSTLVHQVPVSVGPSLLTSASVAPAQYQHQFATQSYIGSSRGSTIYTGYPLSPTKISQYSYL
T1 sequence (Q06187 whole entry): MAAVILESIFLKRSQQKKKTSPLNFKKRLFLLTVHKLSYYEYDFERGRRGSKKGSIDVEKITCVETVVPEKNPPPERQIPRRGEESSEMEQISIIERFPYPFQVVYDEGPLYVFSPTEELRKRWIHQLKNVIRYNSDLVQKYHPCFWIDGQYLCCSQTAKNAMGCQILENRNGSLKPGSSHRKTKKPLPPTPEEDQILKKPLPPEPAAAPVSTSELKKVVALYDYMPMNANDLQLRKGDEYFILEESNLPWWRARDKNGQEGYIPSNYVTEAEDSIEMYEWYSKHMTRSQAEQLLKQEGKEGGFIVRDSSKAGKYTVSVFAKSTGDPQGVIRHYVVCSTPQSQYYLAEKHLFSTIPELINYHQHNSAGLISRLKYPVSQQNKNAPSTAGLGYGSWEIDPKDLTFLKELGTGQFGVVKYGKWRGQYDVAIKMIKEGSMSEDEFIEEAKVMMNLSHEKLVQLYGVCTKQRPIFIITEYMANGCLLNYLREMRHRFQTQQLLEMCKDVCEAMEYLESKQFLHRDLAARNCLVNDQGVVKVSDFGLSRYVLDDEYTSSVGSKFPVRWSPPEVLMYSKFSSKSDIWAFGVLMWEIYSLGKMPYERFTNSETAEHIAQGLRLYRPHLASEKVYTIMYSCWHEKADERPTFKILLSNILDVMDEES
T2 sequence (Q96NX5 whole entry): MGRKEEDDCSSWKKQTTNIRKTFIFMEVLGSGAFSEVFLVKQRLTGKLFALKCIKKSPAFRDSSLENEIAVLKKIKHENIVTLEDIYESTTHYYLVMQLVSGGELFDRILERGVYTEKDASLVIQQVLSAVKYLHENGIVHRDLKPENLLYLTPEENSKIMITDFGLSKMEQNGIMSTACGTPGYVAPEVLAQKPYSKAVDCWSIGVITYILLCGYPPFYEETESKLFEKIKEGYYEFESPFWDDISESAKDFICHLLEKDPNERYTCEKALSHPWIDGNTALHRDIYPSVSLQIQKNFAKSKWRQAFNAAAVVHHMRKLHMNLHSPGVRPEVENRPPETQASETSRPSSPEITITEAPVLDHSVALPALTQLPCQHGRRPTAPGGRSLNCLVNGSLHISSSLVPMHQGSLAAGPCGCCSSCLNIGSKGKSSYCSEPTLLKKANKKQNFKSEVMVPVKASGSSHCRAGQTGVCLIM

## CC(C)(C)C(=O)N1N=CC[C@H]1c1ccccc1 [GSK′963]
[1]; [9]
  remaining activity at 10 µM: 95.6%
[1]; [10]
  remaining activity at 10 µM: 95%
[1]; [11]
  remaining activity at 10 µM: 96.1%
[2]; [9]
  remaining activity at 10 µM: 82.4%
[2]; [10]
  remaining activity at 10 µM: 81.8%
[2]; [11]
  remaining activity at 10 µM: 83%
[3]; [9]
  remaining activity at 10 µM: 103%
[3]; [10]
  remaining activity at 10 µM: 105%
[3]; [11]
  remaining activity at 10 µM: 101%
[4]; [9]
  remaining activity at 10 µM: 94.3%
[4]; [10]
  remaining activity at 10 µM: 95.2%
[4]; [11]
  remaining activity at 10 µM: 93.3%
[5]; [9]
  remaining activity at 10 µM: 111%
[5]; [10]
  remaining activity at 10 µM: 110%
[5]; [11]
  remaining activity at 10 µM: 112%
[6]; [9]
  remaining activity at 10 µM: 100%
[6]; [10]
  remaining activity at 10 µM: 101%
[6]; [11]
  remaining activity at 10 µM: 100%
[7]; [9]
  remaining activity at 10 µM: 102%
[7]; [10]
  remaining activity at 10 µM: 99.7%
[7]; [11]
  remaining activity at 10 µM: 105%
[8]; [9]
  remaining activity at 10 µM: 101%
[8]; [10]
  remaining activity at 10 µM: 103%
[8]; [11]
  remaining activity at 10 µM: 100%
